In this test the test system is CT26 cells. In words: CT26 colon carcinoma flank tumor model, Gemzar and 2F8. The test is classed as in vivo, Mice. To be noted: Kaplan-Meier; Gemzar 80 mg/kg Day 15; 2F8 alone 0.4 mg I.P. Days 15, 16 and 17; FIG. 2. How it is done: One group of control mice was untreated. The group of mice receiving Gemzar was treated with 80 mg/kg Gemzar on Day 15.
GraphPad Prism 4 software was used to plot Kaplan-Meir survival curves and to confirm the median survival times for the groups.

For `Nc1ccn([C@@H]2O[C@H](CO)[C@@H](O)C2(F)F)c(=O)n1` [Gemzar, gemcitabine], the median survival stood at 31 days.

Source of the values: patent US8591886B2, “Combination therapies employing GITR binding molecules” (GITR, Inc., priority 2007, dated 2013).
